Measured values as given in patent US12630600B2 (MEDIMMUNE LIMITED, priority 2022, dated 2026).
Read-outs that look alike come from different tables or passages of the source. Starred links: 1 amine or outer side, 2 acyl side, 3 side chain; linkers in the order of their positions; H or OH if unused. Non-standard residues stand in square brackets, D forms with d. Residues, ends and D or L forms follow the SMILES beside them. Groups on a side chain read outwards from the residue. *: point of attachment. C20 diacid = O=C(O)CCCCCCCCCCCCCCCCCCC(=O)*; C18 diacid = O=C(O)CCCCCCCCCCCCCCCCC(=O)*; Dip = N[C@H](C(=O)O)C(c1ccccc1)c1ccccc1; γGlu = O=C(O)[C@H](CCC(=O)[*:2])N[*:1]; X3 = O=C(CN(Cc1c[nH]cn1)[*:1])[*:2]; Stearoyl = CCCCCCCCCCCCCCCCCC(=O)*; αMeF = C[C@](N)(Cc1ccccc1)C(=O)O; PEG2 = NCCOCCOCCC(=O)O; AEEA = NCCOCCOCC(=O)O; Aib = CC(C)(N)C(=O)O

Key:
[1] = biological target: T1, human GLP-1 receptor (hGLP-1R) (Homo sapiens, UniProt P43220); assay: cAMP production (HTRF) in CHO cells expressing human GLP-1 receptor; type: cell-based; conditions: for EC50: geometric mean, cAMP; for % Relative Potency Ratio: % GLP-1R activity relative to GLP-1 / % GlucR activity relative to glucagon
T1 construct: expressed in transfected cells; host or cells: CHO
T1 sequence (P43220 24-463): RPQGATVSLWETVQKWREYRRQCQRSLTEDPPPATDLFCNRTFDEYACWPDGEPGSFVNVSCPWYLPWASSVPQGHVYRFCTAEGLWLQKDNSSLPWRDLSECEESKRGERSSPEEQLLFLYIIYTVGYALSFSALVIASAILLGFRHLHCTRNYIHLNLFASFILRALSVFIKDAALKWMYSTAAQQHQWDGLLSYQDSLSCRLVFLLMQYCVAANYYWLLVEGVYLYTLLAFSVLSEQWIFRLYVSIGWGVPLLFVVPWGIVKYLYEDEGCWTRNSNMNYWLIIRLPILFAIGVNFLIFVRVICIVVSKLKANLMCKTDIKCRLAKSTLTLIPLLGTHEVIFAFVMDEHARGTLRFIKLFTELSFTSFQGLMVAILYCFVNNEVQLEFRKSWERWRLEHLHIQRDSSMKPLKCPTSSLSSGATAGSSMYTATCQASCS

[2] = biological target: T2, human glucagon receptor (hGCGR) (Homo sapiens, UniProt P47871); assay: cAMP production (HTRF) in CHO cells expressing human glucagon receptor; type: cell-based
T2 construct: expressed in transfected cells; host or cells: CHO
T2 sequence (P47871 26-477): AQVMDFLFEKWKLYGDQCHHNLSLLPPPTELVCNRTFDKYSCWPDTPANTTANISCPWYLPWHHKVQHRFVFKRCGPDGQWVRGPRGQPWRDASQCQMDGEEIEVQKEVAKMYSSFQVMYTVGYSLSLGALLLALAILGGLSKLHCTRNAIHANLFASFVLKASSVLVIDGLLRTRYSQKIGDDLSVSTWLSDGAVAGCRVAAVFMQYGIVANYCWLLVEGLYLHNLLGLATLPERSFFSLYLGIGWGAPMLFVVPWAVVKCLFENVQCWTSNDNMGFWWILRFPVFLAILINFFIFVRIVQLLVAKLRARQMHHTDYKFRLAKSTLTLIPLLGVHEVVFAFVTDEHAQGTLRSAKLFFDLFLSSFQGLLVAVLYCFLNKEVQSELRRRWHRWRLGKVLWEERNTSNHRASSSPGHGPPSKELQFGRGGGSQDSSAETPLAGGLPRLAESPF
Description: Cells were re-suspended in assay buffer at a batch-dependent optimized concentration (typically hGLP-1R cells at 1×10^5 cells/mL, hGCGR cells at 2×10^5 cells/mL).
Cells were added to the assay plate using a multidrop dispenser and incubated at room temperature for 30 minutes before measuring the cAMP level using a cAMP dynamic 2 homogeneous time resolved Fluorescence (HTRF) kit (Cisbio Bioassays #62AM4PEJ) following the two-step protocol as per manufacturer's recommendations. In brief, anti-cAMP cryptate (donor fluorophore) and cAMP-d2 (acceptor fluorophore) were made up separately by diluting each 1 in 20 in conjugate and lysis buffer provided in the kit. Anti-cAMP cryptate was added to all wells of the assay plate, followed by cAMP-d2 added to all wells except non-specific binding (NSB) wells (to which conjugate and lysis buffer was added).
Data was transformed to % Delta F as described in the manufacturer's guidelines and analyzed by 4-parameter logistic fit to determine EC50 values.

[3] = Table 7, modification at position 20, CHO cells expressing hGLP-1R, read-out: hGLP-1R EC50
[4] = Table 7, modification at position 20, CHO cells expressing hGCGR, geometric mean, read-out: hGluc-R EC50
[5] = Table 6, modification at position 17, CHO cells expressing hGLP-1R, read-out: hGLP-1R EC50
[6] = Table 6, modification at position 17, CHO cells expressing hGCGR, geometric mean, read-out: hGluc-R EC50

CC[C@H](C)[C@H](NC(=O)[C@H](Cc1c[nH]c2ccccc12)NC(=O)[C@H](CCCCNC(=O)COCCOCCNC(=O)COCCOCCNC(=O)CC[C@H](NC(=O)CC[C@H](NC(=O)CCCCCCCCCCCCCCCCCCC(=O)O)C(=O)O)C(=O)O)NC(=O)[C@@H](NC(=O)[C@H](Cc1ccccc1)NC(=O)[C@H](CC(=O)O)NC(=O)[C@H](CCC(N)=O)NC(=O)[C@H](C)NC(=O)[C@H](C)NC(=O)[C@H](CCCNC(=N)N)NC(=O)[C@H](CO)NC(=O)[C@H](CC(=O)O)NC(=O)[C@H](CC(C)C)NC(=O)[C@](C)(Cc1ccccc1)NC(=O)[C@H](CCCCN)NC(=O)[C@H](CO)NC(=O)[C@@H](NC(=O)[C@H](CC(=O)O)NC(=O)[C@H](CO)NC(=O)[C@@H](NC(=O)[C@](C)(Cc1ccccc1)NC(=O)[C@H](CO)NC(=O)CNC(=O)[C@H](Cc1c[nH]cn1)NC(=O)[C@H](CO)NC(=O)CNCc1c[nH]cn1)[C@@H](C)O)C(C)C)C(C)C)C(=O)N[C@@H](C)C(=O)N[C@@H](CC(N)=O)C(=O)N[C@H](C(N)=O)[C@@H](C)O [Peptide 380] (H-[X3]SHGS[αMeF]TSDVSK[αMeF]LDSRAAQDFVK([AEEA-AEEA-γGlu-γGlu-C20 diacid])WIANT-NH2; N-terminus assumed)
EC50 ([1]; Table 8, peptides modified at position 24, CHO cells, read-out: hGLP-1R EC50): 871 pM | EC50 ([2]; Table 8, peptides modified at position 24, geometric mean, CHO cells, read-out: hGluc-R EC50): 14900 pM

CC[C@H](C)[C@H](NC(=O)[C@H](Cc1c[nH]c2ccccc12)NC(=O)[C@H](CCCCNC(=O)CC[C@H](NC(=O)CCCCCCCCCCCCCCCCC(=O)O)C(=O)O)NC(=O)[C@@H](NC(=O)[C@H](Cc1ccccc1)NC(=O)[C@H](CC(=O)O)NC(=O)[C@H](CCC(N)=O)NC(=O)[C@H](C)NC(=O)[C@H](C)NC(=O)[C@H](CCCNC(=N)N)NC(=O)[C@H](CO)NC(=O)[C@H](CC(=O)O)NC(=O)[C@H](CC(C)C)NC(=O)[C@@H](NC(=O)[C@H](CCCCN)NC(=O)[C@H](CO)NC(=O)[C@@H](NC(=O)[C@H](CC(=O)O)NC(=O)[C@H](CO)NC(=O)[C@@H](NC(=O)[C@H](Cc1ccccc1)NC(=O)[C@H](CO)NC(=O)CNC(=O)[C@H](CCC(N)=O)NC(=O)C(C)(C)NC(=O)[C@@H](N)Cc1c[nH]cn1)[C@@H](C)O)C(C)C)C(c1ccccc1)c1ccccc1)C(C)C)C(=O)N[C@@H](C)C(=O)N[C@@H](CC(N)=O)C(=O)N[C@H](C(N)=O)[C@@H](C)O [Peptide 343] (H-H[Aib]QGSFTSDVSK[Dip]LDSRAAQDFVK([γGlu-C18 diacid])WIANT-NH2)
EC50 [1, 3]: 198 pM | % Relative Potency Ratio ([1]; Table 7): 196.1 | % Relative Potency Ratio ([1]; Table 8): 4.2 | EC50 [2, 4]: 19600 pM

CCCCCCCCCCCCCCCCCC(=O)N[C@@H](CCC(=O)N[C@@H](CCC(=O)NCCOCCOCCC(=O)NCCOCCOCCC(=O)NCCCC[C@H](NC(=O)[C@H](CO)NC(=O)[C@H](CC(=O)O)NC(=O)[C@H](CC(C)C)NC(=O)[C@@H](NC(=O)[C@H](CCCCN)NC(=O)[C@H](CO)NC(=O)[C@@H](NC(=O)[C@H](CC(=O)O)NC(=O)[C@H](CO)NC(=O)[C@@H](NC(=O)[C@](C)(Cc1ccccc1)NC(=O)[C@H](CO)NC(=O)CNC(=O)[C@H](CCC(N)=O)NC(=O)C(C)(C)NC(=O)[C@@H](N)Cc1c[nH]cn1)[C@@H](C)O)C(C)C)C(c1ccccc1)c1ccccc1)C(=O)N[C@@H](C)C(=O)N[C@@H](C)C(=O)N[C@@H](CCC(N)=O)C(=O)N[C@@H](CC(=O)O)C(=O)N[C@@](C)(Cc1ccccc1)C(=O)N[C@H](C(=O)N[C@@H](CCC(=O)O)C(=O)NC(C)(C)C(=O)N[C@@H](CC(C)C)C(=O)N[C@@H](CCC(=O)O)C(=O)N[C@@H](C)C(=O)NCC(=O)NCC(N)=O)C(C)C)C(=O)O)C(=O)O [Peptide 44] (H-H[Aib]QGS[αMeF]TSDVSK[Dip]LDSK([PEG2-PEG2-γGlu-γGlu-Stearoyl])AAQD[αMeF]VE[Aib]LEAGG-NH2; N-terminus assumed)
EC50 [1, 5]: 2.12 pM | % Relative Potency Ratio ([1]; Table 6): 17.0 | EC50 [2, 6]: 18.2 pM

CC[C@H](C)[C@H](NC(=O)[C@@H](NC(=O)C(C)(C)NC(=O)[C@H](CCC(=O)O)NC(=O)[C@@H](NC(=O)[C@](C)(Cc1ccccc1)NC(=O)[C@H](CC(=O)O)NC(=O)[C@H](CCC(N)=O)NC(=O)[C@H](C)NC(=O)[C@H](C)NC(=O)[C@H](CCCCNC(=O)CCOCCOCCNC(=O)CCOCCOCCNC(=O)CC[C@H](NC(=O)CC[C@H](NC(=O)CCCCCCCCCCCCCCCCC(=O)O)C(=O)O)C(=O)O)NC(=O)[C@H](CO)NC(=O)[C@H](CC(=O)O)NC(=O)[C@H](CC(C)C)NC(=O)[C@@H](NC(=O)[C@H](CCCCN)NC(=O)[C@H](CO)NC(=O)[C@@H](NC(=O)[C@H](CC(=O)O)NC(=O)[C@H](CO)NC(=O)[C@@H](NC(=O)[C@](C)(Cc1ccccc1)NC(=O)[C@H](CO)NC(=O)CNC(=O)[C@H](CCC(N)=O)NC(=O)[C@H](CO)NC(=O)[C@@H](N)Cc1c[nH]cn1)[C@@H](C)O)C(C)C)C(c1ccccc1)c1ccccc1)C(C)C)[C@@H](C)CC)C(=O)N[C@@H](CC(N)=O)C(=O)N[C@H](C(N)=O)[C@@H](C)O [Peptide 65] (H-HSQGS[αMeF]TSDVSK[Dip]LDSK([PEG2-PEG2-γGlu-γGlu-C18 diacid])AAQD[αMeF]VE[Aib]IINT-NH2)
EC50 [1, 5]: 1230 pM | % Relative Potency Ratio ([1]; Table 6): 3.3 | EC50 [2, 6]: 2060 pM

CC[C@H](C)[C@H](NC(=O)[C@H](Cc1c[nH]c2ccccc12)NC(=O)[C@H](CCCCNC(=O)CC[C@H](NC(=O)CC[C@H](NC(=O)CCOCCOCCNC(=O)CC[C@H](NC(=O)CC[C@H](NC(=O)CCCCCCCCCCCCCCCCCCC(=O)O)C(=O)O)C(=O)O)C(=O)O)C(=O)O)NC(=O)[C@@H](NC(=O)[C@H](Cc1ccccc1)NC(=O)[C@H](CC(=O)O)NC(=O)[C@H](CCC(N)=O)NC(=O)[C@H](C)NC(=O)[C@H](C)NC(=O)[C@H](CCC(N)=O)NC(=O)[C@H](CO)NC(=O)[C@H](CC(=O)O)NC(=O)[C@H](CC(C)C)NC(=O)[C@](C)(Cc1ccccc1)NC(=O)[C@H](CCCCN)NC(=O)[C@H](CO)NC(=O)[C@@H](NC(=O)[C@H](CC(=O)O)NC(=O)[C@H](CO)NC(=O)[C@@H](NC(=O)[C@](C)(Cc1ccccc1)NC(=O)[C@H](CO)NC(=O)CNC(=O)[C@H](Cc1c[nH]cn1)NC(=O)C(C)(C)NC(=O)[C@@H](N)Cc1c[nH]cn1)[C@@H](C)O)C(C)C)C(C)C)C(=O)N[C@@H](C)C(=O)N[C@@H](CC(N)=O)C(=O)N[C@H](C(N)=O)[C@@H](C)O [Peptide 357]
% Relative Potency Ratio ([1]; Table 8): 1.2 | EC50 ([1]; hGLP-1R EC50 (pM), Table 8, peptides modified at position 24, CHO cells): 917 pM | EC50 ([2]; hGluc-R EC50 (pM), Table 8, peptides modified at position 24, geometric mean, CHO cells): 550 pM

CC[C@H](C)[C@H](NC(=O)C(C)(C)NC(=O)[C@H](CCC(N)=O)NC(=O)[C@@H](NC(=O)[C@](C)(Cc1ccccc1)NC(=O)[C@H](CC(=O)O)NC(=O)[C@H](CCC(N)=O)NC(=O)[C@H](C)NC(=O)[C@H](C)NC(=O)[C@H](CCCNC(=N)N)NC(=O)[C@H](CO)NC(=O)[C@H](CC(=O)O)NC(=O)[C@H](CC(C)C)NC(=O)[C@](C)(Cc1ccccc1)NC(=O)[C@H](CCCCN)NC(=O)[C@H](CO)NC(=O)[C@H](CCCCNC(=O)COCCOCCNC(=O)COCCOCCNC(=O)CC[C@H](NC(=O)CCCCCCCCCCCCCCCCC(=O)O)C(=O)O)NC(=O)[C@H](CC(=O)O)NC(=O)[C@H](CO)NC(=O)[C@@H](NC(=O)[C@](C)(Cc1ccccc1)NC(=O)[C@H](CO)NC(=O)CNC(=O)[C@H](Cc1c[nH]cn1)NC(=O)C(C)(C)NC(=O)[C@@H](N)Cc1c[nH]cn1)[C@@H](C)O)C(C)C)C(=O)N[C@@H](C)C(=O)N[C@@H](CC(N)=O)C(=O)N[C@H](C(N)=O)[C@@H](C)O [Peptide 392] (H-H[Aib]HGS[αMeF]TSDK([AEEA-AEEA-γGlu-C18 diacid])SK[αMeF]LDSRAAQD[αMeF]VQ[Aib]IANT-NH2)
EC50 ([1]; Table 9, peptides modified at position 10, CHO cells, read-out: hGLP-1R EC50): 312 pM | % Relative Potency Ratio ([1]; Table 9): 43.8 | EC50 ([2]; Table 9, peptides modified at position 10, geometric mean, CHO cells, read-out: hGluc-R EC50): 6920 pM

CC[C@H](C)[C@H](NC(=O)[C@H](Cc1c[nH]c2ccccc12)NC(=O)[C@H](CCC(N)=O)NC(=O)[C@@H](NC(=O)[C@H](Cc1ccccc1)NC(=O)[C@H](CC(=O)O)NC(=O)[C@H](CCCCNC(=O)COCCOCCNC(=O)COCCOCCNC(=O)CC[C@H](NC(=O)CCCCCCCCCCCCCCCCC(=O)O)C(=O)O)NC(=O)[C@H](C)NC(=O)[C@H](C)NC(=O)[C@H](CCCNC(=N)N)NC(=O)[C@H](CO)NC(=O)[C@H](CC(=O)O)NC(=O)[C@H](CC(C)C)NC(=O)[C@](C)(Cc1ccccc1)NC(=O)[C@H](CCCCN)NC(=O)[C@H](CO)NC(=O)[C@@H](NC(=O)[C@H](CC(=O)O)NC(=O)[C@H](CO)NC(=O)[C@@H](NC(=O)[C@](C)(Cc1ccccc1)NC(=O)[C@@H](NC(=O)CNC(=O)[C@H](CCC(N)=O)NC(=O)C(C)(C)NC(=O)[C@@H](N)Cc1c[nH]cn1)[C@@H](C)O)[C@@H](C)O)C(C)C)C(C)C)C(=O)N[C@@H](C)C(=O)N[C@@H](CC(N)=O)C(=O)N[C@H](C(N)=O)[C@@H](C)O [Peptide 204] (H-H[Aib]QGT[αMeF]TSDVSK[αMeF]LDSRAAK([AEEA-AEEA-γGlu-C18 diacid])DFVQWIANT-NH2; N-terminus assumed)
EC50 [1, 3]: 43.3 pM | % Relative Potency Ratio ([1]; Table 7): 27.2 | EC50 [2, 4]: 595 pM
